Experimental data from patent US8664257B2, “Oxygen-substituted 3-heteroaroylamino-propionic acid derivatives and their use as pharmaceuticals” (Sanofi, priority 2010, dated 2014).

biological target: T1, Recombinant human cathepsin A (Homo sapiens, UniProt P10619); test: Cathepsin A inhibitory activity; format: biochemical; conditions: pharmacological test "Cathepsin A inhibitory activity"; IC50 given as class A/B/C; read-out: Activity (2): Cathepsin A inhibitory activity, IC50 class
T1 construct: Recombinant human cathepsin A (residues 29-480, with a C-terminal 10-His tag); 10-His (C); purchased R&D Systems 1049-SE
T1 sequence (P10619 29-312 limits assumed): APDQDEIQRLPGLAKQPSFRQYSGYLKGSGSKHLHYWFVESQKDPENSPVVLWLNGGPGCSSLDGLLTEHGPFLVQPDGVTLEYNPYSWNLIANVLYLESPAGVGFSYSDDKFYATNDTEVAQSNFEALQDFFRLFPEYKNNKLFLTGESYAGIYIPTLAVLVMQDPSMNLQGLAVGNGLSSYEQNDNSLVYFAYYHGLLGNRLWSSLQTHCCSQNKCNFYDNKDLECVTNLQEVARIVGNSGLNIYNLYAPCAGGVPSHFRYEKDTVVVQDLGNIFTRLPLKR
T1 sequence (P10619 327-480 limits assumed): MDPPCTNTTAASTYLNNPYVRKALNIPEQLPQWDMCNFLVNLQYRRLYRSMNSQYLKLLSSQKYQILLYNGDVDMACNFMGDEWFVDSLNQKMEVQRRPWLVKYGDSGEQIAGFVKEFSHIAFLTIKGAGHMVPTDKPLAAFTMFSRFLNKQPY
How it was run: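 Human cathepsin A (res. 29-480, C-His10) pre-activated with cathepsin L (MES pH 6.0, DTT, 15 min, 37 °C; quenched with 10 μM E-64). Enzyme (833 ng/ml) preincubated 15 min RT with compound in MES pH 5.5/DTT, then 2 μM Bodipy FL-bradykinin for 15 min RT. Capillary electrophoresis product/substrate peak areas; IC50 from % inhibition.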

Structure (SMILES)	IC50
O=C(O)CC(NC(=O)c1cc(O)n(-c2ccccc2F)n1)c1cccc(C(F)(F)F)c1 (stereo not shown) [Example 231]	100 to 1000 nM
COc1ccc(C(CC(=O)O)NC(=O)c2cc(O)n(-c3ccccc3F)n2)c(OC)c1 (stereo not shown) [Example 232]	100 to 1000 nM
O=C(O)CC(NC(=O)c1cc(O)n(-c2ccccc2F)n1)c1ccccc1F (stereo not shown) [Example 233]	100 to 1000 nM
COc1ccc(Cl)cc1C(CC(=O)O)NC(=O)c1cc(O)n(-c2ccccc2F)n1 (stereo not shown) [Example 234]	100 to 1000 nM
COc1ccc(C(CC(=O)O)NC(=O)c2cc(O)n(-c3ccccc3F)n2)c(Cl)c1 (stereo not shown) [Example 235]	100 to 1000 nM
O=C(O)C[C@H](NC(=O)c1cc(O)n(-c2ccccc2F)n1)c1ccc(F)cc1 [Example 236]	100 to 1000 nM
COc1cccc([C@H](CC(=O)O)NC(=O)c2cc(O)n(-c3ccccc3F)n2)c1 [Example 237]	100 to 1000 nM
O=C(O)CC(NC(=O)c1cc(O)n(-c2ccccc2F)n1)c1ccc(C(F)(F)F)cc1F (stereo not shown) [Example 238]	100 to 1000 nM
O=C(O)CC(NC(=O)c1cc(O)n(-c2ccccc2F)n1)c1ccc(OC(F)(F)F)cc1 (stereo not shown) [Example 239]	100 to 1000 nM
COc1ccccc1[C@@H](NC(=O)c1cc(O)n(-c2ccccc2F)n1)[C@@H](O)C(=O)O [Example 240]	1000 to 30000 nM
O=C(O)C[C@H](NC(=O)c1cc(O)n(-c2ccccc2F)n1)c1cccc(C(F)(F)F)c1 [Example 241]	100 to 1000 nM
O=C(O)CC(NC(=O)c1cc(O)n(-c2ccccc2F)n1)c1ccc(Cl)cc1F (stereo not shown) [Example 243]	100 to 1000 nM
O=C(O)CC(NC(=O)c1cc(O)n(-c2ccccc2F)n1)c1cccc(Cl)c1F (stereo not shown) [Example 244]	100 to 1000 nM
O=C(O)CC(NC(=O)c1cc(O)n(-c2ccccc2F)n1)c1cccc(C(F)(F)F)c1Cl (stereo not shown) [Example 245]	100 to 1000 nM
Cc1ccc(C(CC(=O)O)NC(=O)c2cc(O)n(-c3ccccc3F)n2)c(C)c1 (stereo not shown) [Example 247]	100 to 1000 nM
Cc1cc(F)ccc1C(CC(=O)O)NC(=O)c1cc(O)n(-c2ccccc2F)n1 (stereo not shown) [Example 248]	100 to 1000 nM
COc1ccc(C(CC(=O)O)NC(=O)c2cc(O)n(-c3cccc(Cl)c3)n2)c(C)c1 (stereo not shown) [Example 250]	100 to 1000 nM
COc1ccc(Cl)cc1C(CC(=O)O)NC(=O)c1cc(O)n(-c2cccc(Cl)c2)n1 (stereo not shown) [Example 255]	100 to 1000 nM
O=C(O)C[C@H](NC(=O)c1cc(O)n(-c2ccc(Cl)cc2)n1)c1ccccc1Br [Example 270]	100 to 1000 nM

The remaining lines, values ahead:

IC50	Structure (SMILES)
100 to 1000 nM	O=C(O)CC(NC(=O)c1cc(O)n(-c2ccccc2F)n1)c1ccc(-c2cccc(F)c2)cc1 (stereo not shown) [Example 242]
100 to 1000 nM	O=C(O)CC(NC(=O)c1cc(O)n(-c2ccccc2F)n1)c1cccc(Oc2ccc(Cl)cc2)c1 (stereo not shown) [Example 246]
100 to 1000 nM	O=C(O)CC(NC(=O)c1cc(O)n(-c2cccc(Cl)c2)n1)c1cccc2c1OCO2 (stereo not shown) [Example 249]
100 to 1000 nM	O=C(O)C[C@H](NC(=O)c1cc(O)n(-c2cccc(Cl)c2)n1)c1ccccc1Br [Example 251]
1000 to 30000 nM	N#Cc1cccc([C@H](CC(=O)O)NC(=O)c2cc(O)n(-c3cccc(Cl)c3)n2)c1 [Example 252]
100 to 1000 nM	COc1ccccc1[C@H](CC(=O)O)NC(=O)c1cc(O)n(-c2cccc(Cl)c2)n1 [Example 253]
100 to 1000 nM	O=C(O)CC(NC(=O)c1cc(O)n(-c2cccc(Cl)c2)n1)c1ccccc1F (stereo not shown) [Example 254]
1000 to 30000 nM	O=C(O)C[C@H](NC(=O)c1cc(O)n(-c2cccc(Cl)c2)n1)c1ccc(C(F)(F)F)cc1 [Example 256]
100 to 1000 nM	O=C(O)CC(NC(=O)c1cc(O)n(-c2cccc(Cl)c2)n1)c1cccc(Cl)c1Cl (stereo not shown) [Example 257]
100 to 1000 nM	Cc1cccc([C@H](CC(=O)O)NC(=O)c2cc(O)n(-c3cccc(Cl)c3)n2)c1 [Example 258]
1000 to 30000 nM	O=C(O)C[C@H](NC(=O)c1cc(O)n(-c2cccc(Cl)c2)n1)c1cccc(C(F)(F)F)c1 [Example 259]
1000 to 30000 nM	O=C(O)CC(NC(=O)c1cc(O)n(-c2cccc(Cl)c2)n1)c1ccc(-c2cccc(F)c2)cc1 (stereo not shown) [Example 260]
100 to 1000 nM	Cc1cccc(C(CC(=O)O)NC(=O)c2cc(O)n(-c3cccc(Cl)c3)n2)c1C (stereo not shown) [Example 261]
100 to 1000 nM	O=C(O)CC(NC(=O)c1cc(O)n(-c2cccc(Cl)c2)n1)c1cccc(Cl)c1F (stereo not shown) [Example 262]
100 to 1000 nM	O=C(O)CC(NC(=O)c1cc(O)n(-c2cccc(Cl)c2)n1)c1cccc(C(F)(F)F)c1Cl (stereo not shown) [Example 263]
100 to 1000 nM	CCc1ccc(C(CC(=O)O)NC(=O)c2cc(O)n(-c3cccc(Cl)c3)n2)cc1 (stereo not shown) [Example 264]
100 to 1000 nM	O=C(O)C[C@H](NC(=O)c1cc(O)n(-c2cccc(Cl)c2)n1)c1c(F)cccc1F [Example 265]
100 to 1000 nM	O=C(O)C[C@H](NC(=O)c1cc(O)n(-c2cccc(Cl)c2)n1)c1ccc(Cl)cc1Cl [Example 266]
1000 to 30000 nM	O=C(O)CC(NC(=O)c1cc(O)n(-c2cccc(Cl)c2)n1)c1ccc(-c2ccc(F)cc2)cc1 (stereo not shown) [Example 267]
1000 to 30000 nM	O=C(O)C[C@H](NC(=O)c1cc(O)n(-c2cccc(Cl)c2)n1)c1cccnc1 [Example 268]
1000 to 30000 nM	COc1ccc([C@H](CC(=O)O)NC(=O)c2cc(O)n(-c3cccc(Cl)c3)n2)cn1 [Example 269]

same assay, conditions: read-out: Activity (2): Cathepsin A inhibitory activity, IC50 class

Structure (SMILES)	IC50
N#Cc1cccc([C@H](CC(=O)O)NC(=O)c2cc(O)n(-c3ccc(Cl)cc3)n2)c1 [Example 271]	1000 to 30000 nM
COc1ccc(C(CC(=O)O)NC(=O)c2cc(O)n(-c3ccc(Cl)cc3)n2)c(OC)c1 (stereo not shown) [Example 273]	1000 to 30000 nM
COc1ccccc1[C@H](CC(=O)O)NC(=O)c1cc(O)n(-c2ccc(Cl)cc2)n1 [Example 274]	1000 to 30000 nM
COc1ccc(Cl)cc1C(CC(=O)O)NC(=O)c1cc(O)n(-c2ccc(Cl)cc2)n1 (stereo not shown) [Example 275]	1000 to 30000 nM
O=C(O)C[C@H](NC(=O)c1cc(O)n(-c2ccc(Cl)cc2)n1)c1cccc(Cl)c1Cl [Example 277]	100 to 1000 nM
COc1cccc([C@H](CC(=O)O)NC(=O)c2cc(O)n(-c3ccc(Cl)cc3)n2)c1 [Example 278]	1000 to 30000 nM
O=C(O)CC(NC(=O)c1cc(O)n(-c2ccc(Cl)cc2)n1)c1cccc(Cl)c1Cl (stereo not shown) [Example 281]	100 to 1000 nM
COc1ccccc1[C@@H](NC(=O)c1cc(O)n(-c2ccc(Cl)cc2)n1)[C@@H](O)C(=O)O [Example 282]	1000 to 30000 nM
COc1cccc([C@H](CC(=O)O)NC(=O)c2cc(O)n(-c3ccc(Cl)cc3)n2)c1OC [Example 283]	100 to 1000 nM
Cc1cccc([C@H](CC(=O)O)NC(=O)c2cc(O)n(-c3ccc(Cl)cc3)n2)c1 [Example 284]	100 to 1000 nM
O=C(O)C[C@H](NC(=O)c1cc(O)n(-c2ccc(Cl)cc2)n1)c1cccc(C(F)(F)F)c1 [Example 285]	1000 to 30000 nM
O=C(O)CC(NC(=O)c1cc(O)n(-c2ccc(Cl)cc2)n1)c1ccc(Cl)cc1F (stereo not shown) [Example 286]	1000 to 30000 nM
Cc1cccc(C(CC(=O)O)NC(=O)c2cc(O)n(-c3ccc(Cl)cc3)n2)c1C (stereo not shown) [Example 287]	100 to 1000 nM
O=C(O)CC(NC(=O)c1cc(O)n(-c2ccc(Cl)cc2)n1)c1cccc(Cl)c1F (stereo not shown) [Example 288]	1000 to 30000 nM
O=C(O)CC(NC(=O)c1cc(O)n(-c2ccc(Cl)cc2)n1)c1cccc(C(F)(F)F)c1Cl (stereo not shown) [Example 289]	100 to 1000 nM
Cc1ccc(C(CC(=O)O)NC(=O)c2cc(O)n(-c3ccc(Cl)cc3)n2)c(C)c1 (stereo not shown) [Example 291]	100 to 1000 nM
Cc1cc(F)ccc1C(CC(=O)O)NC(=O)c1cc(O)n(-c2ccc(Cl)cc2)n1 (stereo not shown) [Example 292]	100 to 1000 nM
O=C(O)C[C@H](NC(=O)c1cc(O)n(-c2ccc(Cl)cc2)n1)c1ccccc1F [Example 293]	1000 to 30000 nM
O=C(O)C[C@H](NC(=O)c1cc(O)n(-c2ccc(Cl)cc2)n1)c1c(F)cccc1F [Example 295]	1000 to 30000 nM
O=C(O)C[C@H](NC(=O)c1cc(O)n(-c2ccc(Cl)cc2)n1)c1ccc(Cl)cc1Cl [Example 297]	100 to 1000 nM
O=C(O)C[C@H](NC(=O)c1cc(O)n(-c2ccc(Cl)cc2)n1)c1cccnc1 [Example 298]	1000 to 30000 nM
COc1ccc([C@H](CC(=O)O)NC(=O)c2cc(O)n(-c3ccc(Cl)cc3)n2)cn1 [Example 299]	1000 to 30000 nM

The remaining lines, values ahead:

IC50	Structure (SMILES)
1000 to 30000 nM	N#Cc1ccc([C@H](CC(=O)O)NC(=O)c2cc(O)n(-c3ccc(Cl)cc3)n2)cc1 [Example 272]
1000 to 30000 nM	O=C(O)C[C@H](NC(=O)c1cc(O)n(-c2ccc(Cl)cc2)n1)c1ccc(F)cc1 [Example 276]
1000 to 30000 nM	O=C(O)C[C@H](NC(=O)c1cc(O)n(-c2ccc(Cl)cc2)n1)c1cccc(F)c1 [Example 279]
1000 to 30000 nM	O=C(O)C[C@H](NC(=O)c1cc(O)n(-c2ccc(Cl)cc2)n1)c1cccc(Cl)c1 [Example 280]
1000 to 30000 nM	O=C(O)CC(NC(=O)c1cc(O)n(-c2ccc(Cl)cc2)n1)c1cccc(Oc2ccc(Cl)cc2)c1 (stereo not shown) [Example 290]
1000 to 30000 nM	O=C(O)CC(NC(=O)c1cc(O)n(-c2ccc(Cl)cc2)n1)c1ccc(Oc2ccccc2)cc1 (stereo not shown) [Example 294]
100 to 1000 nM	O=C(O)C[C@H](NC(=O)c1cc(O)n(-c2ccc(Cl)cc2)n1)c1ccc(Cl)cc1 [Example 296]
100 to 1000 nM	O=C(O)CC(NC(=O)c1cc(O)n(-c2cccc(F)c2)n1)c1cccc2c1OCO2 (stereo not shown) [Example 300]
